# Experimental data reported in patent publication US20250042912A1, “NOVEL NON-FLUORINATED QUINOLONE COMPOUND AND USE THEREOF” (priority 2021, published 2025).
# Key:
# [1] = tested on: Staphylococcus epidermidis ATCC 35983; assay: Minimum inhibitory concentration (MIC) assay, Staphylococcus epidermidis ATCC 35983; format: cell-based; details: ATCC35983, aerobic culture 35+/-2°C, 16 to 20 hours, read with naked eyes
# Procedure: (§1) On the day of the experiment, the compound in the flask was dissolved in 100% DMSO until the concentration of mother liquor was 0.4 mg/mL. If the mother liquor was not used on the same day, it was stored at −80° C. for future use.
# (§2) The compound mother liquor and standard antibiotics were subjected to 2-fold gradient dilution with corresponding solvents on a 96-microwell plate (V-bottom) to obtain 100× working solutions (Well 1 to Well 7) in sequence. Among them, the concentrations of the compound were 400 μg/mL, 200 μg/mL, 100 μg/mL, 50 μg/mL, 25 μg/mL, 12.5 μg/mL, 6.25 μg/mL, and 3.125 μg/mL. 100% DMSO was used as growth control (Well 8). As such, the compound motherplate was obtained.
# (§3) One day before the experiment, aerobic bacteria (Staphylococcus epidermidis) stored in a cryogenic tube at −80° C. were scribed on an MHA (Cation-adjusted Mueller-Hinton agar) plate. The aerobic bacteria were placed in a 35+/−2° C. incubator for 18-24 hours of aerobic cultivation.
# (§4) On the day of the experiment, the plate was taken out, clones were picked from the plate and suspended in physiological saline. Then, the turbidity of the bacterial suspension (containing 1.0-2.0×10^8 CFU/mL) was adjusted to OD600=0.2 by a turbidity meter. Then, the adjusted bacterial suspension was diluted to an appropriate concentration with the assay culture medium: about 5×10^5 CFU/mL for aerobic bacteria, and about 1×10^6 CFU/mL for anaerobic bacteria. As such, the inoculating solution was obtained.
# (§5) 2 μl of 2-fold series dilution of 100× high-concentration working solution was transferred from a compound mother plate (prepared in step 1) to a round-bottom 96-well plate, and then 198 μL of bacterial inoculating solution (prepared in step 2) was added to each well to obtain an MIC assay plate. Therefore, the final assay concentrations of the compound were 4 μg/mL, 2 μg/mL, 1 μg/mL, 0.5 μg/mL, 0.25 μg/mL, 0.125 μg/mL, 0.06 μg/mL and 0.03 μg/mL. The total volume of each well on the assay plate was 200 μL: containing 1% DMSO, about 5×10^5 CFU/mL of aerobic bacteria and about 1×10^6 CFU/mL of anaerobic bacteria.
# (§6) All assay plates for aerobic bacteria were aerobically cultured at 35+/−2° C. for 16 to 20 hours, and all assay plates for anaerobic bacteria were anaerobically cultured in an anaerobic incubator at 35+/−2° C. for 48 hours.
# [2] = tested on: Staphylococcus epidermidis ATCC 35984; assay: Minimum inhibitory concentration (MIC) assay, Staphylococcus epidermidis ATCC 35984; format: cell-based; details: ATCC35984, aerobic culture 35+/-2°C, 16 to 20 hours, read with naked eyes
# Procedure: as §1, §2, §3, §4, §5, §6
# [3] = tested on: Staphylococcus epidermidis ATCC 12228; assay: Minimum inhibitory concentration (MIC) assay, Staphylococcus epidermidis ATCC 12228; format: cell-based; details: ATCC12228, aerobic culture 35+/-2°C, 16 to 20 hours, read with naked eyes
# Procedure: as §1, §2, §3, §4, §5, §6
# [4] = tested on: Propionibacterium acnes ATCC 6919; assay: Acne model in mice: ear bacterial load; format: in vivo
# Procedure: Experimental strain: Propionibacterium acnes ATCC 6919 (Beijing Biobw Biotechnology Co., Ltd.) Experimental animals: Balb/C mice (Zhejiang Vital River Laboratory Animal Technology Co., Ltd.) Balb/C mice were grouped and numbered, and adaptively fed for one week. On the day of modeling, Propionibacterium acnes was taken, and OD600 was measured using a microplate reader. BH1 culture medium was diluted to OD600=1 (about 5×10^8 CFU/mL), centrifuged to discard supernatant, and the remaining culture was diluted to 1×10^8 CFU/mL with PBS. Once the molding began, the mice were anesthetized with a small animal anesthesia machine, the air flow and isoflurane content of the anesthesia machine were adjusted, and the mice were placed in an anesthesia induction chamber for anesthesia induction. After there were no obvious signs of activity, the mice were taken out and their toes were clamped with tweezers or hemostatic forceps for toe pinching reaction testing, if there was no retraction pain response, the surgery could be performed. The anesthetized mice were placed on a mice plate and fixed, the air flow or isoflurane content was adjusted to maintain anesthesia (isoflurane anesthesia induction content of 3% to 4%, anesthesia maintenance content of 1% to 2%, and air flow rate of 300 mL/min to 500 mL/min). […]
structure (smiles),measurement,setting,value
CN(C)c1cc2c(cn1)-c1ccc3c(=O)c(C(=O)O)cn(C4CC4)c3c1COC2 [Compound 6],MIC,[1],0.06 µg/mL
same,MIC,[2],0.06 µg/mL
same,MIC,[3],0.06 µg/mL
same,Ear bacterial load Log10 CFU/Ear Mean ± SD,"[4]; Balb/C mice, left ear homogenate, 48 hours after injection of Propionibacterium acnes, 15 μL applied at 4, 20, 28, 44 hours, drugs as hydrochloride",5.53 ± 0.10 Log10 CFU/Ear
same,bacterial loads in the left ears of mice after treatment,"[4]; compared with acne model group, p<0.001, in words",significantly decreased
